Laboratory results reported in publication PMC11024854 (Theranostics, 2024).
pKd: −log10 of the molar value.

Experiments:
HSP90α (HSP90AA1) = target: T1, HSP90α (HSP90AA1) (Homo sapiens, UniProt P07900); assay: SPR (Biacore […], immobilized HSP90AA1); also C-terminal HSP90α:PPID AlphaLISA inhibition at […]; assay type: binding
T1 construct: recombinant human HSP90AA1 protein

HSP90α = target: T2, HSP90α (Homo sapiens, UniProt P07900); assay: competitive binding assay against FITC-labeled geldanamycin ([…] compound)
T2 construct: gene HSP90AA1; purified recombinant HSP90α (N-terminal domain assay kit)

pKd (HSP90α (HSP90AA1)) | Compound | competitive binding assay against FITC-labeled geldanamycin (1000 nM compound) (HSP90α)
4.01 | COc1c(C(=O)Nc2ccc3c(C)nn(CCC4CCN(C)CC4)c3c2)ccc2c1C=CC(C)(C)O2 [HVH-2930] | 
 | CC(C)c1cc(C(=O)N2Cc3ccc(CN4CCN(C)CC4)cc3C2)c(O)cc1O [onalespib] | unlike the N-terminal HSP90 inhibitors, neither HVH-2930 nor novobiocin exhibited any binding activity to the N-terminal region of HSP90α
